Key:
ATF6 = assay: Immunoblot of the 50 kDa ATF6 fragment; assay type: cell-based; details: immunoblotting
Description: For immunoblotting, cells were lysed in 50 mM Tris buffer, pH 7.5 containing 0.1% TritonX (Fisher Scientific) and supplemented with protease inhibitor cocktail (Roche). For immunoblots of endogenous ATF6, cells were washed in PBS containing protease inhibitor cocktail and 10 μM MG-132 and subsequently lysated in 1× Laemmli buffer, supplemented in the same way, by repeating cycles of boiling and vortexing. Protein lysate concentrations were normalized by Bradford assays (Bio-Rad). Lysates or media were boiled for 10 min in Laemmli buffer+100 mM DTT before loading onto SDS-PAGE gel. Proteins were transferred from gel slabs to nitrocellulose, and the Odyssey Infrared Imaging System (Li-Cor Biosciences) was used to detect proteins of interest.

[1] = system: BiP expression in ALMC-2 cells; assay: BiP qPCR in ALMC-2 cells; assay type: cell-based, human; details: 10 μM, 6 h
Description: (§1) Cells were treated as described at 37° C., washed with Dulbecco's phosphate-buffered saline (Gibco), and then RNA was extracted using the RNeasy Mini Kit (Qiagen). qPCR reactions were performed on cDNA prepared from 500 ng of total cellular RNA using the QuantiTect Reverse Transcription Kit (Qiagen). The FastStart Universal SYBR Green Master Mix (Roche), cDNA, and appropriate human primers^4 or mouse primers (BiP; […] (SEQ ID NO: 5) and […] (SEQ ID NO: 6) purchased from Integrated DNA Technologies were used for amplifications (45 cycles of 1 min at 95° C., 10 s at 95° C., 30 sec at 60° C.) in an ABI 7900HT Fast Real Time PCR machine. Primer integrity was assessed by a thermal melt to confirm homogeneity and the absence of primer dimers. Transcripts were normalized to the housekeeping gene Rplp2 and all measurements were performed in triplicate. Data were analyzed using the RQ Manager and DataAssist 2.0 softwares (ABI).

BiP expression = assay: BiP qPCR 24 h timecourse; assay type: cell-based
Description: as §1

^FTTTR^A25T = assay: [35S] metabolic labeling, secretion of flag-tagged TTR^A25T from HepG2^ATF6 cells; assay type: cell-based; details: 15 h pretreatment, 4 h chase; for degradation of ^FTTTR^A25T / reduction of ^FTTTR^A25T secretion: 10 μM
Description: HepG2 cells or HEK293T cells plated on poly-D-lysine coated plates were metabolically labeled in DMEM-Cys/-Met (CellGro) supplemented with glutamine, penicillin/streptomycin, dialyzed fetal bovine serum, and EasyTag EXPRESS^35S Protein Labeling Mix (Perkin Elmer) for 30 min. Cells were washed twice with complete media and incubated in prewarmed DMEM for the indicated times. Media or lysates were harvested at the indicated times. Lysates were prepared in RIPA buffer with fresh protease inhibitor cocktail (Roche). FLAG tagged TTR variants or ALLC were immunopurified using M1 anti-FLAG agarose beads (Sigma-Aldrich) and washed three times with RIPA buffer. The immunoisolates were then eluted by boiling in Laemmli buffer and separated on SDS-PAGE. For total secreted media, 15 uL aliquots from media incubated for 4 hrs on pulsed cells were run on a SDS-PAGE. The gels were then dried, exposed to phosphorimager plates (GE Healthcare), and imaged with a Typhoon imager. Band intensities were quantified by densitometry in ImageQuant. Fraction secreted was calculated using the equation: fraction secreted=[extracellular [^35S]-LC signal at t=t/(extracellular [^35S]-LC signal at t=0+intracellular [^35S]-LC signal at t=0)]. Fraction remaining was calculated using the equation: [(extracellular [^35S]-LC signal at t=t+intracellular [^35S]-LC signal at t=t)/(extracellular [^35S]-LC signal at t=0+ intracellular [^35S]-LC signal at t=0)].

ALMC-2 cells = assay: ALMC-2 cell viability (CellTiter-Glo); assay type: cell-based, human; details: 10 μM
Description: HepG2 cells were plated at 5,000 cells/well in a translucent, flat-bottomed 96 well plate, and treated for 48 hr with vehicle, 10 μM Tg or 10 μM ER proteostasis regulator. ALMC-2 or KAS-6/1 cells were plated at 33,000 cells/well in 96-well plates then treated with proteostasis regulators for 16 h as described. Cell metabolic activity was measured using the CellTiter-Glo assay (Promega), which reports on intracellular ATP concentration. CellTiter-Glo reagent was added to cell culture media at a 1:1 ratio and incubated for 2 minutes on an orbital shaker to induce cell lysis. The plate was then incubated at room temperature for 10 minutes to stabilize the luminescent signal and read on a Tecan F200 Pro microplate reader.

HEK293T-Rex cells = assay: mRNA-Seq transcriptional profiling and geneset analysis in HEK293T-Rex cells; assay type: cell-based, human; details: for activation of the ATF6 geneset relative to Tg: mRNA-seq geneset analysis; for BiP mRNA-Seq fold change (relative to Vh) / GRP94 mRNA-Seq fold change (relative to Vh) / SEL1L mRNA-Seq fold change (relative to Vh): ATF6-selective gene; for BiP mRNA-Seq fold change (relative to Vh) / GRP94 mRNA-Seq fold change (relative to Vh) / SEL1L mRNA-Seq fold change (relative to Vh) / DNAJB1 mRNA-Seq fold change (relative to Vh) / HSPA1A mRNA-Seq fold change (relative to Vh) / HSPA8 mRNA-Seq fold change (relative to Vh) / ASNS mRNA-Seq fold change (relative to Vh) / DDIT3 (CHOP) mRNA-Seq fold change (relative to Vh) / TrIB3 mRNA-Seq fold change (relative to Vh) / ERdj3 mRNA-Seq fold change (relative to Vh) / HYOU1 mRNA-Seq fold change (relative to Vh) / p58IPK mRNA-Seq fold change (relative to Vh) / DNAJC10 mRNA-Seq fold change (relative to Vh) / HSPA13 mRNA-Seq fold change (relative to Vh) / SEC24D mRNA-Seq fold change (relative to Vh): compounds 10 μM, Tg 1 μM; for DNAJB1 mRNA-Seq fold change (relative to Vh) / HSPA1A mRNA-Seq fold change (relative to Vh) / HSPA8 mRNA-Seq fold change (relative to Vh): HSF1 target gene; for ASNS mRNA-Seq fold change (relative to Vh) / DDIT3 (CHOP) mRNA-Seq fold change (relative to Vh) / TrIB3 mRNA-Seq fold change (relative to Vh): PERK target gene; for ERdj3 mRNA-Seq fold change (relative to Vh) / HYOU1 mRNA-Seq fold change (relative to Vh) / p58IPK mRNA-Seq fold change (relative to Vh): XBP1s- or ATF6-target gene; for DNAJC10 mRNA-Seq fold change (relative to Vh) / HSPA13 mRNA-Seq fold change (relative to Vh) / SEC24D mRNA-Seq fold change (relative to Vh): XBP1s-selective gene
Description: HEK293T-Rex and HEK293^DAX cells in 12-well plates were treated for 6 h with vehicle, 1 μM Tg, 10 μM TMP (in HEK293^DAX), or 10 μM 132, 147 or 263 in biological triplicate at 37° C. Cells were harvested, and RNA was extracted using the RNeasy Mini Kit (Qiagen). Total RNA was quantified using NanoDrop (ND-1000). Samples were run on the Illuina HiSeq system.
Single end, 100 bp-long reads from RNA-Seq experiments were aligned to the GRCh37.p13 human genome reference assembly using SeqMan NGen 11.2.1 (DNAStar, Inc.). The assembly data were then imported into ArrayStar with QSeq (DNAStar, Inc.) to quantify the gene expression levels. The sequence counts were normalized to reads per kilobase per million (RPKM) after filtering out non-mRNA sequence features. The statistical significance of the difference between the expression levels of a gene under different conditions was assessed using a Student's t-test with the Benjamini-Hochberg multiple testing correction.
ATF6- and XBP1s-selective target genes were identified from transcriptional profiles of HEK293D^X cells following stress-independent activation of TMP-dependent DHFR-ATF6 and/or tetracycline inducible XBP1s, as previously described^4. PERK-selective target genes were identified from^8. Only ATF6-, XBP1s- or PERK-selective genes induced >1.5 fold in Tg-treated samples were used in this analysis. The log transformed fold-increase of these target genes in HEK293T-Rex cells treated with the respective ER proteostasis regulators were then normalized to the log transformed fold increase of these genes induced by Tg treatment. The plots shown in FIG. 5b-e were prepared as box and whisker plots using Kaleidograph. Differential activation of the ATF6, XBP1s, and PERK genesets was assessed by one-way ANOVA and significance of pairwise comparison confirmed by unpaired t-test. An analogous strategy was employed to prepare the heat map using transcriptional data from the MGE analysis.

Compound | accumulation of the 50 kDa ATF6 fragment (S1P/S2P proteolysis) (ATF6) | expression of the ATF6 target gene BiP in ALMC-2 cells [1] | time of maximal BiP induction (BiP expression) [h] | degradation of ^FTTTR^A25T (^FTTTR^A25T) | activation of the ATF6 geneset relative to Tg (HEK293T-Rex cells; 10 μM) [%] | BiP mRNA-Seq fold change (relative to Vh) (HEK293T-Rex cells; 6 h) [fold] | GRP94 mRNA-Seq fold change (relative to Vh) (HEK293T-Rex cells; 6 h) [fold] | SEL1L mRNA-Seq fold change (relative to Vh) (HEK293T-Rex cells; 6 h) [fold] | DNAJB1 mRNA-Seq fold change (relative to Vh) (HEK293T-Rex cells; 6 h) [fold] | HSPA1A mRNA-Seq fold change (relative to Vh) (HEK293T-Rex cells; 6 h) [fold] | HSPA8 mRNA-Seq fold change (relative to Vh) (HEK293T-Rex cells; 6 h) [fold] | ASNS mRNA-Seq fold change (relative to Vh) (HEK293T-Rex cells; 6 h) [fold] | DDIT3 (CHOP) mRNA-Seq fold change (relative to Vh) (HEK293T-Rex cells; 6 h) [fold] | TrIB3 mRNA-Seq fold change (relative to Vh) (HEK293T-Rex cells; 6 h) [fold] | ERdj3 mRNA-Seq fold change (relative to Vh) (HEK293T-Rex cells; 6 h) [fold] | HYOU1 mRNA-Seq fold change (relative to Vh) (HEK293T-Rex cells; 6 h) [fold] | p58IPK mRNA-Seq fold change (relative to Vh) (HEK293T-Rex cells; 6 h) [fold] | DNAJC10 mRNA-Seq fold change (relative to Vh) (HEK293T-Rex cells; 6 h) [fold] | HSPA13 mRNA-Seq fold change (relative to Vh) (HEK293T-Rex cells; 6 h) [fold] | SEC24D mRNA-Seq fold change (relative to Vh) (HEK293T-Rex cells; 6 h) [fold] | further results
Cc1ccc(O)c(N/C=C/C(=O)c2ccc(F)cc2)c1 [Compound 132] | increased accumulation | induced | 6 | did not significantly influence | 75 | 9.1 | 3.5 | 4.9 | 3.0 | 9.3 | 1.5 | 2.7 | 10.6 | 5.8 | 2.9 | 3.6 | 3.7 | 1.4 | 2.6 | 3.1 | ^FTTTR^A25T secretion (in words) (^FTTTR^A25T; 10 μM compound or 1 μM Tg): did not significantly influence; reduction in cell viability (ALMC-2 cells): 45%; slope of log2 mRNA fold change with compound versus with Tg (HEK293T-Rex cells; 10 μM, 6 h, ER proteostasis genes): 1
Cc1ccc(O)c(NC(=O)CCc2ccccc2)c1 [Compound 147] |  | induced | 6 | increased degradation | 45 | 3.3 | 1.8 | 2.2 | 1.6 | 3.2 | 1.3 | 1.0 | 1.7 | 1.0 | 1.7 | 1.8 | 1.8 | 1.1 | 1.2 | 1.4 | reduction of ^FTTTR^A25T secretion (^FTTTR^A25T): 45%; cell viability (in words) (ALMC-2 cells): do not significantly affect
O=[N+]([O-])c1ccc(N/N=C/c2ccccc2O)cc1 [Compound 263] | increased accumulation | does not significantly induce | 6 | increased degradation | 50 | 5.7 | 2.5 | 2.7 | 1.4 | 2.5 | 1.3 | 1.5 | 2.0 | 1.3 | 2.4 | 2.7 | 2.9 | 1.3 | 1.7 | 2.1 | reduction of ^FTTTR^A25T secretion (^FTTTR^A25T): 45%
